Common to all, as to format: biochemical
Assay [1] concerns the target T1, recombinant alpha-glucosidase I (human full-length glucosidase I, Glu 1) (Homo sapiens, UniProt Q13724).
T1 construct: 6-His (C); made in house; host or cells: HEK-293T cells transduced with BacMam virus (virus raised in Sf9)
T1 sequence (Q13724 1-837): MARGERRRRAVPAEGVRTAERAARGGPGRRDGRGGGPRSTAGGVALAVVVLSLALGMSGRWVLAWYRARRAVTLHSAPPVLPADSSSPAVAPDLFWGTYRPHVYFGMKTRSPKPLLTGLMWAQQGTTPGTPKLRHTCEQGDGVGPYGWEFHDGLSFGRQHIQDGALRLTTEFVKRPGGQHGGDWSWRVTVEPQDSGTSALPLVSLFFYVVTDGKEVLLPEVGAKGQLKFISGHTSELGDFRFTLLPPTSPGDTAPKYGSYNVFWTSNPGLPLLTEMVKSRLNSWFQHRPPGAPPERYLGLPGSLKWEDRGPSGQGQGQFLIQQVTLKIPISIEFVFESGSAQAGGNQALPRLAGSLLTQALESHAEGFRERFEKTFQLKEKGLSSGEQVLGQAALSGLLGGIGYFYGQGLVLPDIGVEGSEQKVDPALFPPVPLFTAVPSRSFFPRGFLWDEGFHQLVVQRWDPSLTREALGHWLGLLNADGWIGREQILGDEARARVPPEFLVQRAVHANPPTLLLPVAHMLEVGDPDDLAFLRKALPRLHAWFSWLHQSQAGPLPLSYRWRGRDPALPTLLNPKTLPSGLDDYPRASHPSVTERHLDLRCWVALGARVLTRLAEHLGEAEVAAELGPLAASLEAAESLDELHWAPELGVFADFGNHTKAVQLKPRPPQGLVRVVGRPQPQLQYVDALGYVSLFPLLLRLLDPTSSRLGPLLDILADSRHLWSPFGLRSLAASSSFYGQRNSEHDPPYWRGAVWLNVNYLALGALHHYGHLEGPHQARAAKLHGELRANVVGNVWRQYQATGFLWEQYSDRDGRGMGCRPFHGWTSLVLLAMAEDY
Put plainly: Alpha-glucosidase I assay (Amplex Red glucose detection, synthetic trisaccharide substrate). Particulars: Glucosidase 1; read-out: Glu 1 IC50. In outline:
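Compound dilution series incubated 60 min at 37° C with recombinant His-tagged human glucosidase I ([…]), after which trisaccharide substrate analog was added for 90 min at 37° C. Reaction quenched with 1.5M Tris pH 8; D-glucose detected by Amplex Red fluorescence, 560/590 nm. 4-PL curve fit of percent inhibition gave IC50.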

In assay [2] the target is recombinant human GAA (acid alpha-glucosidase) (Homo sapiens, UniProt P10253). Put plainly: Acid alpha-glucosidase (GAA) assay (4-methylumbelliferyl-alpha-D-pyranoside substrate, fluorescence). An outline of the steps:
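IC50 from 4-PL curve fit of percent inhibition, based on fluorescence (365/440 nm) of released methylumbelliferone relative to uninhibited enzyme. Compound dilutions and human GAA incubated 60 min, 37 °C, before 20 min substrate reaction at 37 °C, quenched at pH 10.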

Assay [3] concerns the target rat maltase (partially purified alpha-glucosidase from intestinal rat powder). Put plainly: Intestinal alpha-glucosidase assay, maltose substrate (Glucose GO Kit). In outline: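 First step: 60 min, 37 °C, compound with partially purified rat intestinal alpha-glucosidase. Next, maltose or sucrose for 30 min at 37 °C, ended at 90 °C for 5 min. Glucose quantified enzymatically; concentration–inhibition data fitted 4-PL for IC50.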

From patent publication US20250197372A1 (priority 2020, published 2025) come the findings set out here.

Where only a bound is given, the exact number is not on record here.

A word on the IC50: it is the concentration at which inhibition is half-maximal. Turning to `O=[N+]([O-])c1cc(N2CC3CC2CO3)ccc1NCc1ccc(CN2C[C@@H](O)[C@H](O)[C@@H](O)[C@@H]2CO)cc1` (stereo in doubt) [Compound 1015, (2S,3S,4S,5R)-2-(hydroxymethyl)-1-[(4-{[(2-nitro-4-{2-oxa-5-azabicyclo[2.2.1]heptan-5-yl}phenyl)amino]methyl}phenyl)methyl]piperidine-3,4,5-triol], the IC50 in assay [1] amounted to 9 nM; in assay [2], 129 nM; in assay [3] it was 8 nM.
Take `CN(Cc1cccc(CN2C[C@H](O)[C@@H](O)[C@H](O)[C@H]2CO)c1)c1ccc(CN2CCCO2)cc1[N+](=O)[O-]` [Compound 1020]: the figures for the IC50 in assay [1], in assay [2] and in assay [3] were 118 nM, 1160 nM and 44 nM, respectively.
In the case of `Cc1cc(Br)cc(NCc2cccc(CN3C[C@H](O)[C@@H](O)[C@H](O)[C@H]3CO)c2)c1` [Compound 1021, (2R,3R,4R,5S)-1-[(3-{[(3-bromo-5-methylphenyl)amino]methyl}phenyl)methyl]-2-(hydroxymethyl)piperidine-3,4,5-triol], the IC50 in assay [1] was 6 nM; in assay [2] it was 2090 nM; in assay [3], 8 nM.
On the same counts, the results for `N#Cc1cc(Br)cc(NCc2cccc(CN3C[C@H](O)[C@@H](O)[C@H](O)[C@H]3CO)c2)c1` [Compound 1023, 3-bromo-5-{[(3-{[(2R,3R,4R,5S)-3,4,5-trihydroxy-2-(hydroxymethyl)piperidin-1-yl]methyl}phenyl)methyl]amino}benzonitrile] are 15 nM, 1440 nM and 30 nM.
Turning to `Cc1cc(Br)cc(NCc2ccc(CN3C[C@H](O)[C@@H](O)[C@H](O)[C@H]3CO)cc2)c1` [Compound 1024, (2R,3R,4R,5S)-1-[(4-{[(3-bromo-5-methylphenyl)amino]methyl}phenyl)methyl]-2-(hydroxymethyl)piperidine-3,4,5-triol], the IC50 was 8 nM in assay [1], 221 nM in assay [2] and 2 nM in assay [3].
For `CS(=O)(=O)c1cc(Br)cc(NCc2ccc(CN3C[C@H](O)[C@@H](O)[C@H](O)[C@H]3CO)cc2)c1` [Compound 1025, (2R,3R,4R,5S)-1-[(4-{[(3-bromo-5-methanesulfonylphenyl)amino]methyl}phenyl)methyl]-2-(hydroxymethyl)piperidine-3,4,5-triol], in that order: 21 nM, 135 nM and 4 nM.
On the same counts, the results for `N#Cc1cc(Br)cc(NCc2ccc(CN3C[C@H](O)[C@@H](O)[C@H](O)[C@H]3CO)cc2)c1` [Compound 1026, 3-bromo-5-{[(4-{[(2R,3R,4R,5S)-3,4,5-trihydroxy-2-(hydroxymethyl)piperidin-1-yl]methyl}phenyl)methyl]amino}benzonitrile] are 7 nM, 64 nM and below 1 nM.
On the same counts, the results for `OC[C@@H]1[C@@H](O)[C@H](O)[C@@H](O)CN1Cc1cccc(CNc2ccc(Br)cc2)c1` [Compound 1027, (2R,3R,4R,5S)-1-[(3-{[(4-bromophenyl)amino]methyl}phenyl)methyl]-2-(hydroxymethyl)piperidine-3,4,5-triol] are 22 nM, 2830 nM and 81 nM.
On to `OC[C@@H]1[C@@H](O)[C@H](O)[C@@H](O)CN1Cc1ccc(CNc2ccc(Br)cc2)cc1` [Compound 1028, (2R,3R,4R,5S)-1-[(4-{[(4-bromophenyl)amino]methyl}phenyl)methyl]-2-(hydroxymethyl)piperidine-3,4,5-triol], for which the IC50 in assay [1] was below 1 nM; in assay [2], 666 nM; in assay [3] it was 11 nM.
Consider `O=[N+]([O-])c1cc(Br)ccc1NCc1cccc(CN2C[C@H](O)[C@@H](O)[C@H](O)[C@H]2CO)c1` [Compound 1029, (2R,3R,4R,5S)-1-[(3-{[(4-bromo-2-nitrophenyl)-amino]methyl}phenyl)methyl]-2-(hydroxymethyl)piperidine-3,4,5-triol], for which the IC50 was determined as 8 nM in assay [1], 1330 nM in assay [2] and 10 nM in assay [3].
For `O=[N+]([O-])c1cc(Br)ccc1NCc1ccc(CN2C[C@H](O)[C@@H](O)[C@H](O)[C@H]2CO)cc1` [Compound 1030, (2R,3R,4R,5S)-1-[(4-{[(4-bromo-2-nitrophenyl)amino]methyl}phenyl)methyl]-2-(hydroxymethyl)piperidine-3,4,5-triol], in that order: below 1 nM, 135 nM and below 1 nM.
On the same counts, the results for `Cc1cc(NCc2cccc(CN3C[C@H](O)[C@@H](O)[C@H](O)[C@H]3CO)c2)cc(N2CCOCC2)c1` [Compound 1031, (2R,3R,4R,5S)-2-(hydroxymethyl)-1-{[3-({[3-methyl-5-(morpholin-4-yl)phenyl]amino}methyl)phenyl]methyl}piperidine-3,4,5-triol] are 93 nM, 5220 nM and 174 nM.
On the same counts, the results for `Cc1cc(NCc2cccc(CN3C[C@H](O)[C@@H](O)[C@H](O)[C@H]3CO)c2)cc(C2=COCCO2)c1` [Compound 1032, (2R,3R,4R,5S)-1-{[3-({[3-(5,6-dihydro-1,4-dioxin-2-yl)-5-methylphenyl]amino}methyl)phenyl]methyl}-2-(hydroxymethyl)piperidine-3,4,5-triol] are 16 nM, 4170 nM and 73 nM.
Consider `Cc1cc(NCc2cccc(CN3C[C@H](O)[C@@H](O)[C@H](O)[C@H]3CO)c2)cc(-c2ccc[nH]2)c1` [Compound 1033, (2R,3R,4R,5S)-2-(hydroxymethyl)-1-{[3-({[3-methyl-5-(1H-pyrrol-2-yl)phenyl]amino}methyl)phenyl]methyl}piperidine-3,4,5-triol], for which the IC50 in assay [1] was found to be 9 nM; in assay [2], 5370 nM; in assay [3], 37 nM.
For `Cc1cc(NCc2cccc(CN3C[C@H](O)[C@@H](O)[C@H](O)[C@H]3CO)c2)cc(-c2cccnn2)c1` [Compound 1034, (2R,3R,4R,5S)-2-(hydroxymethyl)-1-{[3-({[3-methyl-5-(pyridazin-3-yl)phenyl]amino}methyl)phenyl]methyl}piperidine-3,4,5-triol], in that order: 20 nM, 2710 nM and 33 nM.
With `CS(=O)(=O)c1cc(NCc2cccc(CN3C[C@H](O)[C@@H](O)[C@H](O)[C@H]3CO)c2)cc(N2CCOCC2)c1` [Compound 1036, (2R,3R,4R,5S)-2-(hydroxymethyl)-1-{[3-({[3-methanesulfonyl-5-(morpholin-4-yl)phenyl]amino}methyl)phenyl]methyl}piperidine-3,4,5-triol], the values for the IC50 in assay [1], in assay [2] and in assay [3] were 30 nM, 2760 nM and 77 nM, respectively.
`N#Cc1cc(NCc2cccc(CN3C[C@H](O)[C@@H](O)[C@H](O)[C@H]3CO)c2)cc(N2CCOCC2)c1` [Compound 1042, 3-(morpholin-4-yl)-5-{[(3-{[(2R,3R,4R,5S)-3,4,5-trihydroxy-2-(hydroxymethyl)piperidin-1-yl]methyl}phenyl)methyl]amino}benzonitrile]: the IC50 in assay [1] came to 30 nM; in assay [2], 1830 nM; in assay [3], 29 nM.
For `OC[C@@H]1[C@@H](O)[C@H](O)[C@@H](O)CN1CCCCCCNc1cc(Cl)cc(-c2ncco2)c1` [Compound 1211, (2R,3R,4R,5S)-1-(6-{[3-chloro-5-(1,3-oxazol-2-yl)phenyl]amino}hexyl)-2-(hydroxymethyl)piperidine-3,4,5-triol], in that order: 112 nM, 16 nM and 1 nM.
On to `OC[C@@H]1[C@@H](O)[C@H](O)[C@@H](O)CN1CCCCCCNc1cc(Cl)cc(-c2ncccn2)c1` [Compound 1212, (2R,3R,4R,5S)-1-(6-{[3-chloro-5-(pyrimidin-2-yl)phenyl]amino}hexyl)-2-(hydroxymethyl)piperidine-3,4,5-triol], for which the IC50 is 105 nM in assay [1], 47 nM in assay [2] and 2 nM in assay [3].
